Experimental data published in ChEMBL document CHEMBL3352682, “Unusual C,O-Fused Glycosylapigenins from Serjania marginata Leaves” (J Nat Prod, 2015).
Converted amounts (≈) assume the structure as drawn.

Assays:
[1] = Antioxidant activity assessed as DPPH radical scavenging activity after 30 mins by UV-spectrophotometry; assay type: physicochemical
[2] = Antioxidant activity assessed as DPPH radical scavenging activity at <= 20 ug/ml after 30 mins by UV-spectrophotometry; assay type: physicochemical; settings: 0.5 h

Row | Structure (SMILES) | IC50 [1] | inhibition (INH) [2]
1 | O=C(O)c1cc(O)c(O)c(O)c1 [GALLIC ACID] | 8.42 µg/mL (≈ 49.5 µM) | –
2 | C[C@@H]1O[C@@H](O[C@H]2C(=O)[C@@H](O)[C@H](C)O[C@@H]2c2c(O)cc3oc(-c4ccc(O)cc4)cc(=O)c3c2O)[C@H](O)[C@H](O)[C@H]1O | Not Active | Not Active
3 | Oc1cc(O)c2c(c1)O[C@@]1(c3ccc(O)c(O)c3)Oc3cc(O)c4c(c3[C@@H]2[C@H]1O)O[C@H](c1ccc(O)c(O)c1)[C@H](O)C4 [PROANTHOCYANIDIN A2] | 9.71 µg/mL (≈ 16.8 µM) | –
4 | Oc1cc(O)c2c(c1)O[C@@]1(c3ccc(O)c(O)c3)Oc3cc(O)c4c(c3[C@@H]2[C@H]1O)O[C@H](c1ccc(O)c(O)c1)[C@H](O)[C@H]4c1c(O)cc(O)c2c1O[C@H](c1ccc(O)c(O)c1)[C@H](O)C2 [CINNAMTANNIN B1] | 5.3 µg/mL (≈ 6.13 µM) | –
5 | C[C@@H]1O[C@@H](O[C@H]2C(=O)[C@@H](O)[C@H](C)O[C@@H]2c2c(O)cc(O)c3c(=O)cc(-c4ccc(O)cc4)oc23)[C@H](O)[C@H](O)[C@H]1O | Not Active | Not Active
6 | Oc1cc(O)c2c(c1)O[C@@]1(c3ccc(O)c(O)c3)Oc3cc(O)c4c(c3[C@@H]2[C@H]1O)O[C@H](c1ccc(O)c(O)c1)[C@@H](O)C4 [PROANTHOCYANIDIN A1] | 8.55 µg/mL (≈ 14.8 µM) | –
